PMC7046902, “Daphnane Diterpenoids from Trigonostemon lii and Inhibition Activities Against HIV-1” (Natural Products and Bioprospecting, 2020)
≈ marks a conversion by molar mass, not a printed value.

What was measured:
[1] = system: fusion of H9/HIV-1IIIB cells with uninfected C8166 cells; experiment: cells; settings: Human immunodeficiency virus 1, C8166, 6 h, read-out: EC50, inhibition of fusion of H9/HIV-1IIIB cells with uninfected C8166 cells
Method: (§4) C8166 cells (3 × 10^4) co-cultured with 1 × 10^4 virus (HIV-1IIIB) infected H9 cells in the presence or absence of the compound with various concentrations at 37 °C in a humidified atmosphere of 5% CO2. T20 was used as positive control. After 6 h incubation, the number of syncytia was scored under an inverted microscope [18].
(§5) Co-cultivation assay. C8166 cells (3×10^4) co-cultured with 1×10^4 virus (HIV-1IIIB) infected H9 cells in the presence or absence of the compound with various concentrations at 37 °C in a humidified atmosphere of 5% CO2. Dextran sulfate (DS) was used as positive control. After 6 h incubation, the number of syncytia was scored under an inverted microscope ^[3].

pNL4-3gp41(36G)V38E,N42S = type: cell-based, HIV-1; settings: T20-resistant strain pNL4-3gp41(36G)V38E,N42S in C8166 cells
pNL4-3gp41(36G)V38A,N42T = type: cell-based, HIV-1; settings: T20-resistant strain pNL4-3gp41(36G)V38A,N42T in C8166 cells
HIV-1IIIB = experiment: microbe, parasite or virus in culture; type: cell-based; settings: for EC50: Human immunodeficiency virus 1, 72 h, read-out: anti-HIV-1 EC50 (syncytia formation induced by HIV-1IIIB)
Method: (§1) In the presence of 100 μL various concentrations of compounds, C8166 cells (4 × 10^5/mL) were infected with virus (HIV-1IIIB) at a multiplicity of infection (M.O.I) of 0.06. The final volume per well was 200 μL. Control assays were performed without the testing compounds in HIV-1IIIB infected and uninfected cultures. AZT was included as positive control. After 3 days of culture, the cytopathic effect (CPE) was measured by counting the number of syncytia (multinucleated giant cell). Percentage inhibition of syncytia formation was calculated and 50% effective concentration (EC50) was calculated.
as §1, with “c. Syncytia assay. In” for “In”, “(4×10^5/mL)” for “(4 × 10^5/mL)”, “calculated ^[3].” for “calculated.”

[2] = target: T1, purified recombinant HIV-1 RT (Human immunodeficiency virus type 1 group M subtype B, UniProt P04585); experiment: RT (reverse transcriptase) assay, ELISA RT kit; type: biochemical; settings: read-out: EC50, inhibition of recombinant HIV-1 RT activity (converted)
T1 construct: purified recombinant HIV-1 RT; purchased Roche
Method: (§2) HIV-1 RT activity was measured by ELISA RT kit (Roche) using a commercially available kit according to the protocol provided by the manufacturer. Samples were incubated with DIG-labeled-reaction mixture at 37 °C for 15 h. Anti-DIG-POD solution was added afterward followed by substrate ABTS. The absorbance at 405/490 nm (A405/490) was determined in the ELISA reader.
as §2, with “e. RT (reverse transcriptase) assay. HIV-1” for “HIV-1”, “reader ^[4].” for “reader.”

in vitro = type: cell-based; settings: human; C8166 cells, MTT, 3 days; read-out: cytotoxicity CC50
Method: (§3) Cellular toxicity of compounds was assessed by MTT method. Briefly, cells were seeded on a microtiter plate in the absence or presence of various concentrations of compounds in triplicate and incubated at 37 °C in a humid atmosphere of 5% CO2 for 3 days. Twenty microliters of MTT reagent (5 mg/mL in PBS) was added to each well, then incubated at 37 °C for 4 h, 100 μL of 50% DMF-20% SDS was added. After the formazan was dissolved completely, the plates were read on a Bio-Tek ELx 800 ELISA reader at 595 nm/630 nm (A595/630). The cytotoxic concentration that caused the reduction of viable cells by 50% (CC50) was calculated from dose–response curve.
as §3, with “b. MTT-based cytotoxicity assay. Cellular” for “Cellular”, “4h,” for “4 h,”, “595nm/630” for “595 nm/630”, “dose-response curve ^[2].” for “dose–response curve.”

HIV-1 = settings: cited from earlier work
C8166 = experiment: in vitro; type: cell-based; settings: C8166 cells, MTT, 3 days
Method: as §3
as §3, with “b. MTT-based cytotoxicity assay. Cellular” for “Cellular”, “4h,” for “4 h,”, “595nm/630” for “595 nm/630”, “dose-response curve ^[2].” for “dose–response curve.”

[3] = system: fusion of H9/HIV-1IIIB cells with uninfected C8166 cells; settings: 6 h
Method: as §4, §5

[4] = C8166 cells, HIV-1IIIB, M.O.I 0.06, 3 days

| Compound | EC50 [1] [µg/mL] | EC50 (syncytium formation) (pNL4-3gp41(36G)V38E,N42S) [µg/mL] | EC50 (syncytium formation) (pNL4-3gp41(36G)V38A,N42T) [µg/mL] | selectivity index CC50/EC50 (HIV-1IIIB; C8166 cells, HIV-1IIIB) | EC50 (HIV-1IIIB; [4]) [µg/mL] | EC50 [2] [µM] | CC50 (in vitro) [µg/mL] | anti-HIV-1 EC50 (HIV-1) [µg/mL] | anti-HIV-1 EC50 (syncytia formation induced by HIV-1IIIB) (HIV-1IIIB; [4]) [µg/mL] | cytotoxicity CC50 (C8166) [µg/mL] | EC50, inhibition of fusion of H9/HIV-1IIIB cells with uninfected C8166 cells [3] [µg/mL] | anti-HIV-1 EC50 (syncytia formation induced by HIV-1IIIB) (HIV-1IIIB; 1IIIB) [µg/mL] |
| --- | --- | --- | --- | --- | --- | --- | --- | --- | --- | --- | --- | --- |
| CC1CCCCCCC(C)C(=O)OC2C(=CCl)C=C3C2(O)C(O)C2(CO)OC2C2C4OC5(c6ccccc6)OC(C(C)C32O5)C4(O)C(O)(COC(=O)c2ccccc2O)C1 (stereo not drawn) [Compound 5, Trigocherriolide A] | 0.00106 (≈ 1.24 nM) | 0.00288 (≈ 3.37 nM) | 0.00343 (≈ 4.02 nM) | 5407.67 | 0.00287 (≈ 3.36 nM) | 313 | 15.5 (≈ 18200 nM) | – | – | – | – | – |
| CC1CCCCCCC(C)C(=O)OC2C(=CCl)C=C3C2(O)C(O)C2(CO)OC2C2C4OC5(c6ccccc6)OC(C(C)C32O5)C4(O)C(C)(O)C1 (stereo not drawn) [Compound 4, Trigocherriolide B] | 0.00873 (≈ 12.2 nM) | 0.00297 (≈ 4.14 nM) | – | 1811.43 | 0.00822 (≈ 11.5 nM) | 278 | 14.9 (≈ 20800 nM) | – | – | – | – | – |
| trigonothyrins F | – | – | – | – | – | – | – | 0.13 | – | – | – | – |
| Cc1cn([C@H]2C[C@H](N=[N+]=[N-])[C@@H](CO)O2)c(=O)[nH]c1=O [AZT, reference compound] | – | – | – | – | – | – | – | – | 0.00508 | 1006.69 | – | – |
| C=C1C=C2C3(O)C1OC(=O)C(C)CCCCCCC(C)CC(C)(O)C1(O)C4OC5(c6ccccc6)OC1C(C1OC1(CO)C3O)C2(O5)C4C (stereo not drawn) [Compound 1, Trigonolactone B] | 0.00225 (≈ 3.3 nM) | 0.0033 (≈ 4.83 nM) | 0.0026 (≈ 3.81 nM) | – | 0.00106 (≈ 1.55 nM) | > 439 | 16.5 (≈ 24100 nM) | – | – | – | – | – |
| CC1CCCCCCC(C)C(=O)OC2C(=CCl)C=C3C2(O)C(O)C2(CO)OC2C2C4OC5(c6ccccc6)OC(C(C)C32O5)C4(O)C(O)(CO)C1 (stereo not drawn) [Compound 6, Trigocheriolide E] | 0.00176 (≈ 2.4 nM) | 0.00374 (≈ 5.1 nM) | 0.00381 (≈ 5.2 nM) | 12193.33 | 0.0015 (≈ 2.05 nM) | 261 | 18.3 (≈ 24900 nM) | – | – | – | – | – |
| C=C1C=C2C3(O)C1OC(=O)C(C)CCCCCCC(C)CC(O)(COC(=O)c1ccccc1O)C1(O)C4OC5(c6ccccc6)OC1C(C1OC1(CO)C3O)C2(O5)C4C (stereo not drawn) [Compound 2, Trigonolactone D] | 0.00462 (≈ 5.64 nM) | 0.00272 (≈ 3.32 nM) | 0.00583 (≈ 7.12 nM) | 4468.42 | 0.0019 (≈ 2.32 nM) | 60.2 | 8.49 (≈ 10400 nM) | – | – | – | – | – |
| C=C1C=C2C3(O)C1OC(=O)C(C)CCCCCCC(C)CC(O)(CO)C1(O)C4OC5(c6ccccc6)OC1C(C1OC1(CO)C3O)C2(O5)C4C (stereo not drawn) [Compound 3, Trigonolactone E] | 0.00185 (≈ 2.65 nM) | 0.00443 (≈ 6.34 nM) | – | 29610.17 | 0.00059 (≈ 0.844 nM) | > 429 | 17.5 (≈ 25000 nM) | – | – | – | – | – |
| trigonothyrins C | – | – | – | – | – | – | – | 2.19 | – | – | – | – |
| Enfuvirtide | – | – | – | – | – | – | – | – | – | – | 0.00977 | 0.09725 |
